From US20060247250A1 (TargeGen, Inc., priority 2005, published 2006)
pIC50: −log10 of the molar value.

Columns and labels:
Format in all cases: biochemical
human c-Src = biological target: T1, human c-Src (Homo sapiens, UniProt P12931); assay: Src kinase inhibition, luciferase-based residual ATP (KinaseGlo); details: recombinant human c-Src, ATP 3 μM, PTK2 substrate, 90 minutes at room temperature
T1 construct: purchased Panvera/Invitrogen
Method: (§1) The ability of compounds of the present invention to inhibit the activity of three groups of kinases was tested. Kinases tested included the src family (primarily src and yes), the angiogenic growth factors receptors (FGFR1, PDGFRb and VEGFR2) and the ephrin, EphB4. All kinase reactions were conducted in 96-well plates with a final reaction volume of 50 ul.
(§2) Recombinant human c-Src or Yes (28 ng/well, Panvera/Invitrogen, Madison Wis.), ATP (3 μM), a tyrosine kinase substrate (PTK2, 250 μM, Promega Corp., Madison Wis.), and test agents (at concentrations ranging from about 1 nM/l to about 100 μM/1), in the presence of Src kinase reaction buffer (Upstate USA, Lake Placid N.Y.). After reacting for about 90 minutes at room temperature, residual ATP was determined using a luciferase-based assay (KinaseGlo, Promega Corp.) as a measure of kinase activity. Data from four wells were then averaged and used to determine IC50 values for the test compounds (Prism software package, GraphPad Software, San Diego Calif.).

human Yes = biological target: T2, human Yes (Homo sapiens, UniProt P07947); assay: Yes kinase inhibition, luciferase-based residual ATP (KinaseGlo); details: recombinant human Yes, ATP 3 μM, PTK2 substrate, 90 minutes at room temperature
T2 construct: purchased Panvera/Invitrogen
Method: as §1, §2

FGFR1 = biological target: T3, FGFR1 (Homo sapiens, UniProt P11362); assay: FGFR1 kinase assay, residual ATP luminescence; details: poly(glu4tyr), 2.5 uM ATP, 60 minutes at 37 C
T3 construct: purchased Panvera/Invitrogen
Method: as §1
(§3) FGFR1 and VEGFR2 kinase assays were similarly performed. FGFR1 (76 ng/well, Panvera/Invitrogen) was combined with 12.5 mg/ml poly(glu4tyr) (Sigma) and 2.5 uM ATP. VEGFR2 (14.1 U/well, Cell Signaling/ProQinase) was used with 0.3 mg/ml poly(glu4tyr) and 1.5 uM ATP. Both were incubated for 60 minutes at 37 C, and the residual ATP was measured via luminescence, per the procedure described above.

VEGFR2 = biological target: T4, VEGFR2 (Homo sapiens, UniProt P35968); assay: VEGFR2 kinase assay, residual ATP luminescence; details: VEGFR2, poly(glu4tyr), 1.5 uM ATP, 60 minutes at 37 C; read-out: Vegfr IC50
T4 construct: purchased Cell Signaling/ProQinase
Method: as §1, §3

T1 sequence (P12931 whole entry): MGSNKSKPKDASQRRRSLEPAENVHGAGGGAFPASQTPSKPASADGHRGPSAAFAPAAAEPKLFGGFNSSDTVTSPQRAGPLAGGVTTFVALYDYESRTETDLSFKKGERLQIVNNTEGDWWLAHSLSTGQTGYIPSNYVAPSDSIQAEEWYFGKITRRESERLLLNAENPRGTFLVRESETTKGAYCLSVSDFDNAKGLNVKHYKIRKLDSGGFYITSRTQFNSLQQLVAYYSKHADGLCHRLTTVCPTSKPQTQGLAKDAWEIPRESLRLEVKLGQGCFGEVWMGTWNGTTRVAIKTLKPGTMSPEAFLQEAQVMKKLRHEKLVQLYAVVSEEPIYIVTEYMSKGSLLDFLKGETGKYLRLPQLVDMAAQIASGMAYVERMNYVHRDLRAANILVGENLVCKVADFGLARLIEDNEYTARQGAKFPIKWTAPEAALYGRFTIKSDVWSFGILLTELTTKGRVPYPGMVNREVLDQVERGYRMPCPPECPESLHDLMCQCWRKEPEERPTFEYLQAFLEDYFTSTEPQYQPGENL
T4 sequence (P35968 20-1356, species assumed): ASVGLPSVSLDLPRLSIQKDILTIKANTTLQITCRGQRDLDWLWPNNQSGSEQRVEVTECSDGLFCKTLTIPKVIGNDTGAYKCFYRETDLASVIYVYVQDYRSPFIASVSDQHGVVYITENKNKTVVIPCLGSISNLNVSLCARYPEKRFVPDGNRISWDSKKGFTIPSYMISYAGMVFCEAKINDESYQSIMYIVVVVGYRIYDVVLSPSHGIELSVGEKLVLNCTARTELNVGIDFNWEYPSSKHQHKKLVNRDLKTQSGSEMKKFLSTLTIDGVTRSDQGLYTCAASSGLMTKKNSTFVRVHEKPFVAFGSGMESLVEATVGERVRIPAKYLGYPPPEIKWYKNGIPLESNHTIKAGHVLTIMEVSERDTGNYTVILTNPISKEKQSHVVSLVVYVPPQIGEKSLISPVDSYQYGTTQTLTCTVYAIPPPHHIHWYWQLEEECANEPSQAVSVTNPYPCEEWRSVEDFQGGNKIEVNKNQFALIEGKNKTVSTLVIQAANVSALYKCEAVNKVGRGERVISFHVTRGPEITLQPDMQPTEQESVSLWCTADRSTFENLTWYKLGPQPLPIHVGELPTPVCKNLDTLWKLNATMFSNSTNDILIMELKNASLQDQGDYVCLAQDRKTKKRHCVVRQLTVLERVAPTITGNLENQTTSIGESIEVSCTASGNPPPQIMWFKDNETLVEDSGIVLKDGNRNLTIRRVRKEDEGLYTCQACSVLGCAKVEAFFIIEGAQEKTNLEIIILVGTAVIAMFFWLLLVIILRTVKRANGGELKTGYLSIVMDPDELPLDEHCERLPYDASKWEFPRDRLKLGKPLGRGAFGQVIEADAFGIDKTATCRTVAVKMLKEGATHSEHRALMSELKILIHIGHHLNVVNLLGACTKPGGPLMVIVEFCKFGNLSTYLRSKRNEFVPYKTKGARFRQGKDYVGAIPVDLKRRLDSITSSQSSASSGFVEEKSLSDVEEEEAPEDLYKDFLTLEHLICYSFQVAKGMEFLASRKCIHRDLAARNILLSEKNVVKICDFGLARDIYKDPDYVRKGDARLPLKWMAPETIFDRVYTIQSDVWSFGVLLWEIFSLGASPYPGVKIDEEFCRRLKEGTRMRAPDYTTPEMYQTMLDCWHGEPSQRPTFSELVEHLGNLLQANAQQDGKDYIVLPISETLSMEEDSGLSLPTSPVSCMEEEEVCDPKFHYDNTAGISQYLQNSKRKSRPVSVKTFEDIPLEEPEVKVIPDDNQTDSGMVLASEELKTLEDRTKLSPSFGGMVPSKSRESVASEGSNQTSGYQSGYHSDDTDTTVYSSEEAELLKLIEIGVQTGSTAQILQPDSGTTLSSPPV
T3 sequence (P11362 22-822, species assumed): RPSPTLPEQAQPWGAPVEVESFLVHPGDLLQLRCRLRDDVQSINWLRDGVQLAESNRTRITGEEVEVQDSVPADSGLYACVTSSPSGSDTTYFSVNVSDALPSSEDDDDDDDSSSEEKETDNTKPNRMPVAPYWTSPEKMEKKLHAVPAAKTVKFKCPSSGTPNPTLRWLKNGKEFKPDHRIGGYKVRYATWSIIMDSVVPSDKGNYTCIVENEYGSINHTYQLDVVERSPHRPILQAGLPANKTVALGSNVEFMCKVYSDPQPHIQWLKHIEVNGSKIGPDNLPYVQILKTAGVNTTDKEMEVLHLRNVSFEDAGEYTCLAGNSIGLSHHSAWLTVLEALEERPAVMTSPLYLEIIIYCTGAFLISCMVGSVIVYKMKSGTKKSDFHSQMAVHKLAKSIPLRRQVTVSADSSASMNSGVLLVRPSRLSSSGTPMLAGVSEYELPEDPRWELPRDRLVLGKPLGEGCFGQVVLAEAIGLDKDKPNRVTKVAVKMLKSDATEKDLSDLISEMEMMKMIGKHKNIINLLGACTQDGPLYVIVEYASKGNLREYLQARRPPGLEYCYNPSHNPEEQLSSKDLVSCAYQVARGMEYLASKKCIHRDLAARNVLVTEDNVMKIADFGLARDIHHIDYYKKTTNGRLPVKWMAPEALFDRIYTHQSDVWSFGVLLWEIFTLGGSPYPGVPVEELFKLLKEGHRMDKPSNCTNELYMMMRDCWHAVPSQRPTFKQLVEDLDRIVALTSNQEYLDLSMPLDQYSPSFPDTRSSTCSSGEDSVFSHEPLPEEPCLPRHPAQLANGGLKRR
T2 sequence (P07947 whole entry): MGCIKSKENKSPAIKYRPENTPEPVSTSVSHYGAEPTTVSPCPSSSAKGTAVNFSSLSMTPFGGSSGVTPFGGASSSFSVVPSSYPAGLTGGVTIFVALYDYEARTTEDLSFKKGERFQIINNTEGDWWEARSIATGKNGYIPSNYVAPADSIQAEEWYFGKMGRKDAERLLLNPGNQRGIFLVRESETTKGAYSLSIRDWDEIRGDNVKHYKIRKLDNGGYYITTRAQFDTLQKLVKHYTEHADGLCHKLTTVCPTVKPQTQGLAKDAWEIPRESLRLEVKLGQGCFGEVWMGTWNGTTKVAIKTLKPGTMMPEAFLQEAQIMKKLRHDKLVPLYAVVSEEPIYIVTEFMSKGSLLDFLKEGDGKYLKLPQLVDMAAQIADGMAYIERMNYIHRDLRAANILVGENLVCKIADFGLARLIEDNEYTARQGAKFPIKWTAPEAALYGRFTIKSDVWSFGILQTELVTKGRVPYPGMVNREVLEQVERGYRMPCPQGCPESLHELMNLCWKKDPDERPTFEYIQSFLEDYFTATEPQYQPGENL

| SMILES | pIC50 (human c-Src) | other results |
| --- | --- | --- |
| O=C(Nc1cnc(Nc2cccnc2)nc1)c1cc(O)ccc1Cl [XI, Chloro-5-hydroxy-N-[2-(pyridin-3-ylamino)-pyrimidin-5-yl]-benzamide] | 7.37 |  |
| CN1CCN(C(=O)c2ccc(Nc3ncc(NC(=O)c4c(Cl)cccc4Cl)cn3)cc2)CC1 [XIV, 2,6-Dichloro-N-{2-[4-(4-methyl-piperazine-1-carbonyl)-phenylamino]-pyrimidin-5-yl}-benzamide] | 7.03 |  |
| CC(C)N(CCO)C(=O)c1cccc(Nc2ncc(NC(=O)c3c(Cl)cccc3Cl)cn2)c1 [XIX, 2,6-Dichloro-N-(2-{3-[(2-hydroxy-ethyl)-isopropyl-carbamoyl]-phenylamino}-pyrimidin-5-yl)-benzamide] | 7.60 |  |
| Oc1ccc(Cl)c(CNc2cnc(Nc3ccc(OCCN4CCCC4)cc3)nc2)c1 [XLI, 3-((2-(4-(2-(Pyrrolidin-1-yl)ethoxy)phenylamino)pyrimidin-5-ylamino)methyl)-4-chlorophenol] | 7.26 |  |
| O=C(Nc1cnc(Nc2cccc(OCCN3CCCC3)c2)nc1)c1cc(O)ccc1Cl [XLII, N-(2-(3-(2-(Pyrrolidin-1-yl)ethoxy)phenylamino)pyrimidin-5-yl)-2-chloro-5-hydroxybenzamide] | 7.68 |  |
| Cc1cccc(C)c1C(=O)Nc1cnc(Nc2cccc(OCCN3CCCC3)c2)nc1 [XLIII, N-(2-(3-(2-(Pyrrolidin-1-yl)ethoxy)phenylamino)pyrimidin-5-yl)-2,6-dimethylbenzamide] | 7.00 |  |
| O=C(Nc1cnc(Nc2cccc(OCCN3CCCC3)c2)nc1)c1c(Cl)cccc1Cl [XLIV, N-(2-(3-(2-(Pyrrolidin-1-yl)ethoxy)phenylamino)pyrimidin-5-yl)-2,6-dichlorobenzamide] | 7.60 |  |
| O=C(Nc1cnc(Nc2ccc(N3CCN(CCO)CC3)nc2)nc1)c1c(Cl)cccc1Cl [XLIX, 2,6-Dichloro-N-(2-{6-[4-(2-hydroxy-ethyl)-piperazin-1-yl]-pyridin-3-ylamino}-pyrimidin-5-yl)-benzamide] | 7.27 |  |
| O=C(Nc1cnc(Nc2ccc(S(=O)(=O)N3CCNCC3)cc2)nc1)c1cc(O)ccc1Cl [XLVII, 2-Chloro-5-hydroxy-N-{2-[4-(piperazine-1-sulfonyl)-phenylamino]-Pyrimidin-5-yl}-benzamide] | 7.42 |  |
| O=C(Nc1cnc(Nc2ccc(C(=O)N3CCN(CCO)CC3)nc2)nc1)c1cc(O)ccc1Cl [XLVIII, 2-Chloro-5-hydroxy-N-(2-{6-[4-(2-hydroxy-ethyl)-piperazine-1-carbonyl]-pyridin-3-ylamino}-pyrimidin-5-yl)-benzamide] | 7.28 |  |
| Cc1cccc(C)c1C(=O)Nc1cnc(Nc2ccc(C(=O)N3CCN(C)CC3)cc2)nc1 [XV, 2,6-Dimethyl-N-{2-[4-(4-methyl-piperazine-1-carbonyl)-phenylamino]-pyrimidin-5-yl}-benzamide] | 6.65 |  |
| CN1CCN(C(=O)c2ccc(Nc3ncc(NC(=O)c4cc(O)ccc4Cl)cn3)cc2)CC1 [XVI, 2-Chloro-5-hydroxy-N-{2-[4-(4-methyl-piperazine-1-carbonyl)-phenylamino]-pyrimidin-5-yl}-benzamide] | 7.68 |  |
| Cc1c(O)cccc1C(=O)Nc1cnc(Nc2ccc(C(=O)N3CCN(C)CC3)cc2)nc1 [XVII, 2-Methyl-3-hydroxy-N-{2-[4-(4-methyl-piperazine-1-carbonyl)-phenylamino]-pyrimidin-5-yl}-benzamide] | 6.26 |  |
| O=C(NCCN1CCCC1)c1csc(Nc2ncc(NC(=O)c3cc(O)ccc3Cl)cn2)n1 [XVIII, 2-[5-(2-Chloro-5-hydroxy-benzoylamino)-pyrimidin-2-ylamino]-thiazole-4-carboxylic acid (2-pyrrolidin-1-yl-ethyl)-amide] | 7.70 |  |
| CC(C)N(CCO)C(=O)c1cccc(Nc2ncc(NC(=O)c3cc(O)ccc3Cl)cn2)c1 [XX, 2-Chloro-5-hydroxy-N-(2-{3-[(2-hydroxy-ethyl)-isopropyl-carbamoyl]-phenylamino}-pyrimidin-5-yl)-benzamide] | 7.72 |  |
| CC(C)N(CCO)C(=O)c1ccc(Nc2ncc(NC(=O)c3c(Cl)cccc3Cl)cn2)cc1 [XXI, 2,6-Dichloro-N-(2-{4-[(2-hydroxy-ethyl)-isopropyl-carbamoyl]-phenylamino}-pyrimidin-5-yl)-benzamide] | 6.54 |  |
| CC(C)N(CCO)C(=O)c1ccc(Nc2ncc(NC(=O)c3cc(O)ccc3Cl)cn2)cc1 [XXII, 2-Chloro-5-hydroxy-N-(2-{4-[(2-hydroxy-ethyl)-isopropyl-carbamoyl]-phenylamino}-pyrimidin-5-yl)-benzamide] | 7.37 |  |

| SMILES | pIC50 (human c-Src) | other results |
| --- | --- | --- |
| O=C(NCCN1CCCC1)c1ccc(Nc2ncc(NC(=O)c3cc(O)ccc3Br)cn2)cc1 [XXIII, 2-Bromo-5-hydroxy-N-{2-[4-(2-pyrrolidin-1-yl-ethylcarbamoyl)-phenylamino]-pyrimidin-5-yl}-benzamide] | 7.89 |  |
| Cc1cccc(C)c1C(=O)Nc1cnc(Nc2ccc(C(=O)NCCN3CCCC3)cc2)nc1 [XXIX, 2,6-Dimethyl-N-{2-[4-(2-pyrrolidin-1-yl-ethylcarbamoyl)-phenylamino]-pyrimidin-5-yl}-benzamide] | 6.93 |  |
| O=C(NCCN1CCCC1)c1ccc(Nc2ncc(NC(=O)c3cc(O)ccc3Cl)cn2)cc1 [XXV, 2-Chloro-5-hydroxy-N-{2-[4-(2-pyrrolidin-1-yl-ethylcarbamoyl)-phenylamino]-pyrimidin-5-yl}-benzamide] | 8.07 |  |
| Cc1c(O)cccc1C(=O)Nc1cnc(Nc2ccc(C(=O)NCCN3CCCC3)cc2)nc1 [XXVII, 3-Hydroxy-2-methyl-N-{2-[4-(2-pyrrolidin-1-yl-ethylcarbamoyl)-phenylamino]-pyrimidin-5-yl}-benzamide] | 6.67 |  |
| O=C(NCCN1CCCC1)c1ccc(Nc2ncc(NC(=O)c3c(Cl)cccc3Cl)cn2)cc1 [XXVIII, 2,6-Dichloro-N-{2-[4-(2-pyrrolidin-1-yl-ethylcarbamoyl)-phenylamino]-pyrimidin-5-yl}-benzamide] | 7.22 |  |
| O=C(Nc1cc(O)ccc1Cl)c1cnc(Nc2ccc(OCCN3CCCC3)cc2)nc1C(F)(F)F [XXX, 2-[4-(2-Pyrrolidin-1-yl-ethoxy)-phenylamino]-4-trifluoromethyl-pyrimidine-5-carboxylic acid (2-chloro-5-hydroxy-phenyl)-amide] | 5.87 |  |
| N#Cc1cccc(C(=O)Nc2cnc(Nc3ccc(S(=O)(=O)CCCN4CCCC4)cc3)nc2)c1 [XXXI, 3-Cyano-N-{2-[4-(3-pyrrolidin-1-yl-propane-1-sulfonyl)-phenylamino]-pyrimidin-5-yl}-benzamide] | < 5.00 |  |
| O=C(Nc1cnc(Nc2ccc(S(=O)(=O)CCCN3CCCC3)cc2)nc1)c1cc(O)ccc1Cl [XXXII, 2-Chloro-5-hydroxy-N-{2-[4-(3-pyrrolidin-1-yl-propane-1-sulfonyl)-phenylamino]-pyrimidin-5-yl}-benzamide] | 8.01 |  |
| Cc1c(O)cccc1C(=O)Nc1cnc(Nc2ccc(S(=O)(=O)CCCN3CCCC3)cc2)nc1 [XXXIII, 3-Hydroxy-2-methyl-N-{2-[4-(3-pyrrolidin-1-yl-propane-1-sulfonyl)-phenylamino]-pyrimidin-5-yl}-benzamide] | 6.47 |  |
| O=C(Nc1cnc(Nc2ccc(S(=O)(=O)CCCN3CCCC3)cc2)nc1)c1c(Cl)cccc1Cl [XXXIV, 2,6-Dichloro-N-{2-[4-(3-pyrrolidin-1-yl-pronane-1-sulfonyl)-phenylamino]-pyrimidin-5-yl}-benzamide] | 6.92 |  |
| Cc1cccc(C)c1C(=O)Nc1cnc(Nc2ccc(OCCN3CCCC3)cc2)nc1 [XXXIX, N-(2-(4-(2-(Pyrrolidin-1-yl)ethoxy)phenylamino)pyrimidin-5-yl)-2,6-dimethyl-benzamide] | 6.98 |  |
| O=C(Nc1cnc(Nc2ccc(S(=O)(=O)CCCN3CCCC3)cc2)nc1)c1ccc(O)cc1Cl [XXXV, 2-Chloro-4-hydroxy-N-{2-[4-(3-pyrrolidin-1-yl-propane-1-sulfonyl)-phenylamino]-pyrimidin-5-yl}-benzamide] | 6.34 |  |
| O=C(Nc1cnc(Nc2ccc(S(=O)(=O)CCCN3CCCC3)cc2)nc1)c1cccc(O)c1 [XXXVI, 3-Hydroxy-N-{2-[4-(3-pyrrolidin-1-yl-propane-1-sulfonyl)-phenylamino]-pyrimidin-5-yl}-benzamide] | 5.83 |  |
| O=C(Nc1cnc(Nc2ccc(S(=O)(=O)CCCN3CCCC3)cc2)nc1)c1cc(Cl)ccc1Cl [XXXVII, 2,5-Dichloro-N-{2-[4-(3-pyrrolidin-1-yl-propane-1-sulfonyl)-phenylamino]-pyrimidin-5-yl}-benzamide] | 5.76 |  |
| O=C(Nc1cnc(Nc2ccc(OCCN3CCCC3)cc2)nc1)c1cc(O)ccc1Cl [XXXVIII, N-(2-(4-(2-(Pyrrolidin-1-yl)ethoxy)phenylamino)pyrimidin-5-yl)-2-chloro-5-hydroxybenzamide] | 7.57 |  |
| O=C(Nc1cnc(Nc2ccc(S(=O)(=O)NCCN3CCCC3)cc2)nc1)c1cc(O)ccc1Cl [drawing 203] |  | pIC50 (human Yes): 9.10; pIC50 (FGFR1): 5.28; pIC50 (VEGFR2): 6.49 |
